The assay addresses 5-HT1D receptor (Bos taurus). The assay can be described thus: Binding affinity towards 5-hydroxytryptamine 1D receptor in calf striatum using [3H]5-HT as radio-ligand.
As to `COc1ccc(NC(=O)N2CCC(c3c[nH]c4cc(F)ccc34)CC2)cc1N1CCN(C)CC1` [4-(6-Fluoro-1H-indol-3-yl)-piperidine-1-carboxylic acid [4-methoxy-3-(4-methyl-piperazin-1-yl)-phenyl]-amide], the IC50 is 200 nM.
With `COc1ccc(NC(=O)N2CCc3[nH]c4ccc(F)cc4c3C2)cc1N1CCN(C)CC1` [8-Fluoro-1,3,4,5-tetrahydro-pyrido[4,3-b]indole-2-carboxylic acid [4-methoxy-3-(4-methyl-piperazin-1-yl)-phenyl]-amide], the half-maximal inhibitory concentration (IC50) worked out at 667 nM.
As for `COc1ccc(NC(=O)NCCc2c[nH]c3ccc(F)cc23)cc1N1CCN(C)CC1` [1-[2-(5-Fluoro-1H-indol-3-yl)-ethyl]-3-[4-methoxy-3-(4-methyl-piperazin-1-yl)-phenyl]-urea], the IC50 is 167 nM.
On to `COc1ccc(NC(=O)N2CCN(CCCCc3c[nH]c4ccc(F)cc34)CC2)cc1N1CCN(C)CC1` [4-[4-(5-Fluoro-1H-indol-3-yl)-butyl]-piperazine-1-carboxylic acid [4-methoxy-3-(4-methyl-piperazin-1-yl)-phenyl]-amide], for which the IC50 came to 367 nM.
On to `COc1ccc(NC(=O)N2CCC(c3c[nH]c4ccc(C#N)cc34)CC2)cc1N1CCN(C)CC1` [4-(5-Cyano-1H-indol-3-yl)-piperidine-1-carboxylic acid [4-methoxy-3-(4-methyl-piperazin-1-yl)-phenyl]-amide], for which the IC50 is 400 nM.
Next, `COc1ccc(NC(=O)N2CCC(c3c[nH]c4ccc(C(N)=O)cc34)CC2)cc1N1CCN(C)CC1` [3-{1-[4-Methoxy-3-(4-methyl-piperazin-1-yl)-phenylcarbamoyl]-piperidin-4-yl}-1H-indole-5-carboxylic acid amide]: 100 nM; `COc1ccc(NC(=O)NCCN2CCC(c3c[nH]c4cc(F)ccc34)CC2)cc1OCCN(C)C` [1-[3-(2-Dimethylamino-ethoxy)-4-methoxy-phenyl]-3-{2-[4-(6-fluoro-1H-indol-3-yl)-piperidin-1-yl]-ethyl}-urea]: 433 nM.

For the origin of these results see BindingDB's records for doi:10.1021/jm9811054 (Merck, 2000).
